Assays:
Assay type in all cases: cell-based, human
[1] = system: HUES8-derived polyhormonal cells; assay: small-molecule phenotypic screen on polyhormonal cells (high-content imaging of pro/insulin and pro/glucagon); conditions: 96 hours incubation, quintuplicate
Method: (§1) Toward this goal, we initiated a small-molecule phenotypic screen to identify compounds that either promote alpha cell identity or conversely reduce proinsulin expression in vitro. Briefly, HUES8 cells were differentiated using our polyhormonal optimized protocol. Cells were dispersed and arrayed into a 384-well plate and compounds were introduced. HUES8-derived polyhormonal cells were co-incubated with a compound library for 96 hours, after which the cells were fixed and stained for pro/glucagon and pro/insulin. High-content imaging was used to quantify the percentage of cells expressing each hormone individually and the percentage of polyhormonal cells as marked by the co-expression of both hormones (FIGS. 3A-3B). In total 43 compounds were evaluated in quintuplicate. […] To confirm that the effects of this compound were not unique to the assay format, PdbU was evaluated in the final stage of the directed differentiation protocol.
Polyhormonal cells were dispersed using TrypLE Express for 15 minutes and quenched using S3 media. The resulting single cell suspension was arrayed into a 384 well plate which had been coated with Matrigel with 50,000 cells in each well. Compounds were introduced each to 5 separate wells and incubated for 96 hours after which cells were fixed with 4% PFA and stained for pro/insulin and pro/glucagon as described above with the following modifications. Antibody incubations and washes were performed using a BioTek EL405 Plate washer and dispenser. Cells were imaged with the cellomics array scan high content imaging system. Nine fields of view were captured for each well and analyzed for cell number and fluorescent content. The percentage of cells expressing pro/insulin and pro/glucagon was calculated for each well.

[2] = system: HUES8 cells differentiated to SC-beta cells; assay: PdbU treatment of stage 6 SC-beta cell differentiation, flow cytometry
Text: FIG. 7 provides flow cytometry of HUES8 cells differentiated to SC-beta cells and treated with PdbU for 14 days during stage 6.
Differentiation of hPSCs to beta cells results in a side population of polyhormonal cells. To this end we evaluated the effect of PKC activation on the differentiation of SC-beta cells. […] However, when treated with PdbU, the polyhormonal side population in the differentiation was reduced, and the percentage of monohormonal alpha cells was increased.
Cells were collected for flow cytometry analysis at various time points throughout the differentiation process. Cells were dispersed with TrypLE Express at 37° C. for 15 minutes after which trypsin was quenched with serum containing media (S1, S2, or S3). Cells were fixed in 4% PFA for 20 minutes and subsequently stored in PBS at 4° C. until staining. Staining was performed by first permeabilizing the cells in block solution (PBS+0.1% Triton X-100+5% donkey serum) for 40 minutes. Cells were then incubated with primary antibodies in block solution for 1 hour at RT, washed twice with PBST and incubated with secondary antibody in block solution for 1 hour at RT. Cells were then washed in three times and resuspended in PBST at a concentration of 1×10^6 cells/ml. Stained cells were analyzed using the Accuri C6 or Attune flow cytometers. Antibody concentrations used were as follows. Pro/insulin was assessed using an antibody that recognizes the c-peptide epitope from the Iowa Hybridoma Bank and used at a concentration of 1:300. Pro/glucagon was assessed using an antibody that recognizes the GLP-2 (Santa Cruz) or glucagon (Manufacturer) epitopes and used at a concentration of 1:300. Secondary antibodies used were a donkey-anti-goat-Alexaflour 488 (1:500) and a donkey-anti-rat-Alexaflour 647 (1:500).

[3] = system: polyhormonal cells; assay: PKC activator treatment in final stage (stage 6) of directed differentiation, flow cytometry
Method: as §1
To test the specificity of PKC activation on the results shown above, we compiled a small library of known PKC activators and evaluated their ability to similarly decrease insulin expression in polyhormonal cells. […] To that end, we treated polyhormonal cells for 28 days with either vehicle or each PKC activator and assessed the percentage of monohormonal expressing alpha cells at the end of the 28-day treatment. […]

[4] = system: SC-alpha cells; assay: glucagon secretion of SC-alpha cells with glucagon secretion modulators
Text: To evaluate the ability of SC-alpha cells to respond to physiological conditions, we screened a number of glucagon secretion modulators and evaluated the effect on glucagon secretion. In the human islet, alpha cells secrete glucagon in response to low glucose conditions. […] Additionally, alpha cells respond to paracrine inhibitory signaling from delta cells through the hormone somatostatin resulting in suppressed glucagon secretion.
A number of pharmacological compounds have been developed to modulate glucagon secretion. We evaluated the effect of these compounds on SC-alpha cells to determine how well SC-alpha cells recapitulate the functional response of alpha cells (FIG. 4C).
Human islets or differentiated polyhormonal or SC-alpha cells were washed twice in low-glucose (2.8 mM) Krebs Ringer (KRB) buffer (128 mM NaCl, 5 mM KCl, 2.7 mM CaCl2, 1.2 mM MgSO4, 1 mM Na2HPO4, 1.2 mM KH2PO4, 5 mM NaHCO3, 10 mM HEPES, 0.1% BSA in milliQ). Cells were then loaded into 24 well transwell inserts and fasted in low glucose KRB for 1 hour at 37° C. Clusters were washed once in low glucose KRB and then incubated in low glucose KRB for 1 hour at 37° C. […] Cells were then dispersed and counted using a vicell automated cell counter. Collected supernatants were analyzed by ELISA for Insulin and/or glucagon and normalized to cell number.

[5] = stage 6 SC-beta cells treated with PdbU

SMILES | percentage of cells expressing pro/glucagon [1] | percentage of polyhormonal cells (cells expressing both pro/insulin and pro/glucagon) [1] | percentage of pro/insulin expressing cells [1] | percentage of Nkx6.1/C-peptide co-positive cells (number of beta cells) ([2]; PdbU for 14 days during stage 6) | percentage of monohormonal alpha cells in the SC-beta differentiation [2, 5] | polyhormonal side population in the SC-beta differentiation [2, 5] | population of polyhormonal cells induced to reduce insulin expression ([3]; 28 day treatment, stage 6, vs. 23±3% (comparison)) [%] | percentage of monohormonal SC-alpha cells after withdrawal of PdbU ([3]; cultured in the absence of PdbU for 7 days) | glucagon secretion from SC-alpha cells [4]
CCCC(=O)O[C@@H]1[C@@H](C)[C@@]2(O)[C@@H](C=C(CO)C[C@]3(O)C(=O)C(C)=C[C@@H]23)[C@@H]2C(C)(C)[C@]12OC(=O)CCC [PdbU] | increase | significantly reduced | significantly decrease | did not have a significant effect | increased | reduced | 46±4 | did not significantly reduce | –
COc1ccccc1OCC(O)CN1CCN(CC(=O)Nc2c(C)cccc2C)CC1 (stereo not drawn) [ranolazine] | – | – | – | – | – | – | – | – | increase glucagon secretion

Reference: patent US20240368557A1, “STEM CELL-DERIVED ALPHA CELLS AND METHODS OF GENERATING SAME” (President and Fellows of Harvard College, priority 2018, published 2024)
